# Measurements: paper PMC6117091, “The C. difficile clnRAB operon initiates adaptations to the host environment in response to LL-37” (PLoS Pathogens, 2018)
# pKd: −log10 of the molar value. Read-outs that look alike come from different tables or passages of the source. Where a SMILES comes first, the peptide text is derived from it. Bridges are numbered along the chain shown (N, C = ends). Where no end group is shown, it is not given here. [ ]: non-standard residue; d: D form. The star is where a group is joined. X1 = CC[C@H](C)CCCCC(=O)*; Dab = NCC[C@H](N)C(=O)O
# Legend:
# [1] = test system: C. difficile clnAB mutant (MC935); experiment: Minimum inhibitory concentration (MIC); assay type: cell-based, Clostridioides difficile; details: Mueller-Hinton Broth, 24 h, 37°C, anaerobic, ~5 x 10^5 CFU/ml
# Protocol: (§1) Minimum inhibitory concentrations (MIC) were determined as previously described. […] Briefly, overnight cultures of C. difficile strains were diluted 1:50 in Mueller-Hinton Broth (Difco) and grown to OD600 of 0.45 (~5 x 10^7 CFU/ml). Cultures were then diluted 1:10 in MHB and seeded at a further 1:10 dilution in a round-bottom 96-well plate prepared with serial dilutions of antimicrobials for a starting concentration of ~5 x 10^5 CFU/ml. Plates were incubated for 24 h at 37°C in the anaerobic chamber.
# C. difficile 630Δerm = experiment: Minimum inhibitory concentration (MIC); assay type: cell-based, Clostridioides difficile; details: Mueller-Hinton Broth, 24 h, 37°C, anaerobic, ~5 x 10^5 CFU/ml
# Protocol: as §1
# [2] = test system: C. difficile clnR mutant (MC885); experiment: Minimum inhibitory concentration (MIC); assay type: cell-based, Clostridioides difficile; details: Mueller-Hinton Broth, 24 h, 37°C, anaerobic, ~5 x 10^5 CFU/ml
# Protocol: as §1
# [3] = test system: clnR expression in C. difficile 630Δerm; experiment: clnR expression by qRT-PCR after exposure to antimicrobials (induction specificity); details: for Relative clnR expression: BHIS, mean of three replicates ± SEM; for Induction of clnR transcription (in words): concentrations of Table 1
# [4] = target: LL-37 (human cathelicidin) (human)
# [5] = Clostridioides difficile, read-out: MIC
molecule,measurement,setting,value
"CC[C@H](C)CCCCC(=O)N[C@@H](CCN)C(=O)N[C@H](C(=O)N[C@@H](CCN)C(=O)N[C@H]1CCNC(=O)[C@H]([C@@H](C)O)NC(=O)[C@H](CCN)NC(=O)[C@H](CCN)NC(=O)[C@H](CC(C)C)NC(=O)[C@@H](Cc2ccccc2)NC(=O)[C@H](CCN)NC1=O)[C@@H](C)O [Polymyxin B, polymyxin B] (X1-[Dab]T[Dab][Dab][Dab][dF]L[Dab][Dab]T; lactam 4-C (inferred); N-terminus assumed)",MIC,[1],500 mg/L
same,MIC,C. difficile 630Δerm,500 mg/L
same,MIC,[2],500 mg/L
same,Relative clnR expression,"[3]; 200 μg/ml, normalized to 630Δerm without antimicrobials",1.2 ± 0.2
same,Induction of clnR transcription (in words),[3],none of the other cell-surface-active antimicrobials tested
"CN[C@H](CC(C)C)C(=O)N[C@H]1C(=O)N[C@@H](CC(N)=O)C(=O)N[C@H]2C(=O)N[C@H]3C(=O)N[C@H](C(=O)N[C@H](C(=O)O)c4cc(O)cc(O)c4-c4cc3ccc4O)[C@H](O)c3ccc(c(Cl)c3)Oc3cc2cc(c3O[C@@H]2O[C@H](CO)[C@@H](O)[C@H](O)[C@H]2O[C@H]2C[C@](C)(N)[C@H](O)[C@H](C)O2)Oc2ccc(cc2Cl)[C@H]1O [Vancomycin, vancomycin]",MIC,[1]; [5],1 mg/L
same,MIC,C. difficile 630Δerm; [5],1 mg/L
same,MIC,[2]; [5],1 mg/L
same,Induction of clnR transcription (in words),[3],none of the other cell-surface-active antimicrobials tested
"nisin (ITSISLCTPGCKTGALMGCNMKTATCHCSIHVSK; also: lantibiotic, modified residues and rings not given here; UniProt P13068 24-57, looked up)",MIC,[1],360 mg/L
same,MIC,C. difficile 630Δerm,360 mg/L
same,MIC,[2],360 mg/L
same,Relative clnR expression,"[3]; 7.5 μg/ml, normalized to 630Δerm without antimicrobials",1.1 ± 0.4
same,Induction of clnR transcription (in words),[3],none of the other cell-surface-active antimicrobials tested
Recombinant N-terminally His-tagged ClnR (natural protein),pKd,[4],7.08
"CC1(C)S[C@@H]2[C@H](NC(=O)[C@H](N)c3ccccc3)C(=O)N2[C@H]1C(=O)O [Ampicillin, ampicillin]",MIC,[1]; [5],4 mg/L
same,MIC,C. difficile 630Δerm; [5],4 mg/L
same,MIC,[2]; [5],4 mg/L
same,Induction of clnR transcription (in words),[3],none of the other cell-surface-active antimicrobials tested
Lysozyme,Relative clnR expression,"[3]; 1 mg/ml, normalized to 630Δerm without antimicrobials",1.1 ± 0.3
same,Induction of clnR transcription (in words),[3],none of the other cell-surface-active antimicrobials tested
mCRAMP,Relative clnR expression,"[3]; 2 μg/ml, normalized to 630Δerm in BHIS without antimicrobials",111.4 ± 27.3
same,Induction of clnR transcription (in words),[3],also induced
